# Measured values reported in patent EP0652009A1, “Identification and use of protease inhibitors” (ELI LILLY AND COMPANY, priority 1993, dated 1995).
# Molecular target: Cathepsin D (Homo sapiens, UniProt P07339)
# Assay: Assay 3: cathepsin D inhibition activity (non-cellular assay, chromogenic substrate)
# Assay type: biochemical
# Set-up: Frozen human placental tissue was thawed and homogenized; from tissue; host or cells: human placenta
# Conditions: 4 µM test compound; inhibition of initial rate relative to control; cathepsin D from human placental tissue
# Method: A third non-cellular assay for determining in vitro aspartyl protease inhibitory activity is generally described in Jupp, R.A. et al., (1990) Biochem. J., 265:871-878 and Rao et al., J. Med. Chem. (1993), in press. The assay is carried out by incubating a test compound with a suitable aspartyl protease, such as cathepsin D, in the presence of a chromogenic substrate. The inhibition constant, Ki, value may then be determined by quantifying the competitive inhibition of the hydrolysis of the chromogenic substrate. A variety of chromogenic substrates that are useful for assaying aspartyl protease activity are discussed in Dunn, et al., (1986) Biochem. J., 237:899-906. A preferred chromogenic substrate for a cathepsin D assay is disclosed in Scarborough, P.E. et al., Protein Science, (1993), 2:264-276.
# Concentrations of substrate solutions and cleavage products may be verified using amino acid analysis. The enzyme preparations may be titrated with a tightly binding inhibitor to quantitate the active concentration of the enzyme. Enzyme concentrations are typically in the range of from 1-6 nM. Stock solutions of the test compound are prepared at concentrations ranging from 1.0 to 5.0 mg/mL, and then 50-100 µL portions of these stock solutions may be further diluted to a concentration in the range of 5 to 300 µM for rate determinations.
# […] Then, the test compounds are assayed over a concentration range of, for example, 5 to 300 µM for rate determinations.
# A decrease in absorbance in the range of 284-324 nm may be monitored using a spectrophotometer. Absorbance readings are typically taken at various timepoints. The initial velocities are then plotted versus the initial substrate concentration. […] Estimates of Ki may then be determined using the Dixon construction. Dixon, M., (1953) Biochem J., 55:170-171.
# If the ratio of the total active enzyme concentration to the estimated Ki value ([E]t/Ki) is less than 0.2, then the precise Ki value may be computed by using a non-linear curve fitting program based on the equation: v= Vmax [S]/[S] + Km (1 + [I]/Ki ) [formula] where v is the initial rate, [S] is the initial substrate concentration, [I] is the inhibitor concentration and Km and Ki are defined above. […] P.J.F., (1972) Biochem J., 127:321-333. This Assay is exemplfied in Assay 3.
# The homogenate was centrifuged at 10,000 rpm for 30 minutes in a Sorvall GSA rotor. The supernatant was adjusted to pH 3.7 using 5.7N HCl and then sodium acetate was added to a concentration of 0.1M. The resultant mixture was incubated for 30 minutes at 0°C, resulting in the formation of a precipitate. This precipitate was removed by centrifugation (30 minutes, 10,000 rpm). The acidic supernatent was applied to a chromatography column (pepstatinyl agarose equilibrated with 0.1M sodium acetate, pH 3.5, 0.1% Brij 35, and 1M NaCl), washed until the OD₂₈₀ of the effluent returned to baseline, and then eluted with 50mM Tris-HCl, pH 8.6, 0.1% Brij 35, and 1M NaCl. The eluent was dialyzed against 10mM sodium phosphate, pH 7.0, 0.1% Brij 35, and 0.1M NaCl, and then applied to a 1 mL DEAE-Sephacel column equilibrated with the same buffer. Cathepsin D was recovered in the breakthrough fraction.
# The enzyme mixture (125 µL buffer (0.1M sodium formate at pH 3.7), 1 µL of a 1mM solution of test compound, 4 µL of DMSO, enzyme and water to provide a total volume of 230 µL) was vortexed and prewarmed for four minutes before the addition of the chromogenic substrate. After warming, the enzyme mixture was added to 20 µL of a […] dilution of substrate solution. A control reaction mixture was similarly prepared without the addition of the test compound. The percent of inhibition of the initial rate of reaction in the presence of a particular concentration of test compound (i.e. 4 µM) may be determined for the test compound by monitoring the reaction mixture in parallel to the control reaction. […]
# Chain of Cathepsin D (P07339 169-412 limits assumed): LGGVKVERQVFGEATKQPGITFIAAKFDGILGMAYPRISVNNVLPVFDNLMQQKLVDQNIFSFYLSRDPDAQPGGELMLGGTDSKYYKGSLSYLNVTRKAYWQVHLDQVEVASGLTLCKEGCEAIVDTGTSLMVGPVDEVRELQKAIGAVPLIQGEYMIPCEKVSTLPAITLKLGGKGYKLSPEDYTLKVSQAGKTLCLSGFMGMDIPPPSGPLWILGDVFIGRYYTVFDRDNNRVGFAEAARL
# Chain of Cathepsin D (P07339 65-162 limits assumed): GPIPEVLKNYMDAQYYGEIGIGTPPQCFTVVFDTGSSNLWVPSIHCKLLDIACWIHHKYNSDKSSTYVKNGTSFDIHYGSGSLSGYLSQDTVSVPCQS
row,Compound,% inhibition at 4µ M [%]
1,"[1S-(1R*,4R*,5S*)]-N-(1-(2-Amino-2-oxoethyl)-2-oxo-3-aza-4-phenylmethyl-5-hydroxy-6-(2-(1-t-butylamino-1- oxomethyl)phenyl)hexyl)-2-(6,7,8,9-tetrahydronaphthyl) carboxamide [Example 11]",32

# Same assay, conditions: 4 µM test compound; inhibition of initial rate relative to control; cathepsin D from human placental tissue; read-out: % inhibition at 4µ M
row,Compound,inhibition at 4 µM [%]
1,"CC(C)(C)NC(=O)c1ccccc1C[C@@H](O)[C@H](Cc1ccccc1)NC(=O)[C@H](Cc1c[nH]cn1)NC(=O)[C@H](Cc1cccc2ccccc12)NC(=O)OC(C)(C)C [Example 27, [2R-(2R*,3S*,6S*,9S*)]-N-t-Butyl-2-[2-hydroxy-3-phenylmethyl-4,7-diaza-5,8-dioxo-6-(imidazol-4-ylmethyl)-9-N(t-butoxycarbonyl)amino-10-naphth-1-yl]decyl benzamide]",40
2,"CC(C)(C)NC(=O)c1ccccc1C[C@@H](O)[C@H](Cc1ccccc1)NC(=O)[C@H](Cc1cnc[nH]1)NC(=O)[C@@H](Cc1cccc2ccccc12)NC(=O)OC(C)(C)C [Example 28, [2R-(2R*,3S*,6S*,9R*)]-N-t-Butyl-2-[2-hydroxy-3-phenylmethyl-4,7-diaza-5,8-dioxo-6-(imidazol-4-ylmethyl)-9-N(t-butoxycarbonyl)amino-10-naphth-1-yl]decyl benzamide]",6
3,"CC(C)(C)NC(=O)c1ccccc1C[C@@H](O)[C@H](Cc1ccccc1)NC(=O)[C@@H](CC(=O)O)NS(C)(=O)=O [Example 31, [2R-(2R*,3S*,6R*)]-N-t-Butyl-2-[2-hydroxy-3-phenylmethyl-4-aza-5-oxo-6-N(methylsulfonyl)amino-7-carboxy]heptyl benzamide]",43
4,"CC(C)(C)NC(=O)c1ccccc1C[C@@H](O)[C@H](Cc1ccccc1)NC(=O)[C@H](CC(N)=O)NS(=O)(=O)CCc1cccc2ccccc12 [Example 32, [2R-(2R*,3S*,6S*)]-N-t-Butyl-2-[2-hydroxy-3-phenylmethyl-4-aza-5-oxo-6-N(naphth-1-ylethylsulfonyl)amino-7-carbamoyl]heptyl benzamide]",12

# Same assay, conditions: cathepsin D from human placental tissue, chromogenic substrate, pH 3.7, 37°C
row,Compound,Ki [nM]
1,"CC(C)(C)NC(=O)c1ccccc1CC(O)C(Cc1ccccc1)NC(=O)C(CC(N)=O)NC(=O)C(Cc1cccc2ccccc12)NC(=O)OC(C)(C)C (stereo not drawn) [Example 26, [2R-(2R*,3S*,6S*,9S*)]-N-t-Butyl-2-[2-hydroxy-3-phenylmethyl-4,7-diaza-5,8-dioxo-6-(2-amino-2-oxoethyl)-9-N(t-butoxycarbonyl)amino-10-naphth-1-yl]decyl benzamide]",2300 ± 410
2,"CC(C)C(NC(=O)OCc1ccccc1)C(=O)NC(Cc1ccccc1)C(O)C(O)C(Cc1ccccc1)NC(=O)C(NC(=O)OCc1ccccc1)C(C)C [Example 33, 1,6-Diphenyl-2(S),5(S)-di[N-[2(S)-N(benzyloxycarbonyl)amino-3-methyl-butanoyl]amino]-3,4-dihydroxyhexane]",23 ± 3
3,"CC(C)C(NC(=O)OCc1ccc2ccccc2n1)C(=O)NC(Cc1ccccc1)C(O)C(O)C(Cc1ccccc1)NC(=O)C(NC(=O)OCc1ccc2ccccc2n1)C(C)C [Example 34, 1,6-Diphenyl-2(S),5(S)-di[N-[2(S)-N(quinolin-2-ylmethoxycarbonyl)amino-3-methylbutanoyl]amino]-3,4-dihydroxyhexane]",18
4,"CC(C)C(NC(=O)OCc1ccccn1)C(=O)NC(Cc1ccccc1)C(O)C(O)C(Cc1ccccc1)NC(=O)C(NC(=O)OCc1ccccn1)C(C)C [Example 35, 1,6-Diphenyl-2(S),5(S)-di[N-[2(S)-N(pyrid-2-ylmethoxycarbonyl)amino-3-methylbutanoyl]amino]-3,4-dihydroxyhexane]",86
